Values of other authors in patent US20060111369A1, “Synthesis, characterization and biological action of optically active isomers of floxacins” (priority 2004, published 2006).

Columns and labels:
[1] = system: gram-negative and gram-positive bacteria; details: against both gram-negative and gram-positive bacteria
[2] = effects on the CNS
[3] = biological target: IKr potassium current channel (Homo sapiens, UniProt Q12809)
[4] = according to the FDA

Chain of IKr potassium current channel (Q12809 whole entry): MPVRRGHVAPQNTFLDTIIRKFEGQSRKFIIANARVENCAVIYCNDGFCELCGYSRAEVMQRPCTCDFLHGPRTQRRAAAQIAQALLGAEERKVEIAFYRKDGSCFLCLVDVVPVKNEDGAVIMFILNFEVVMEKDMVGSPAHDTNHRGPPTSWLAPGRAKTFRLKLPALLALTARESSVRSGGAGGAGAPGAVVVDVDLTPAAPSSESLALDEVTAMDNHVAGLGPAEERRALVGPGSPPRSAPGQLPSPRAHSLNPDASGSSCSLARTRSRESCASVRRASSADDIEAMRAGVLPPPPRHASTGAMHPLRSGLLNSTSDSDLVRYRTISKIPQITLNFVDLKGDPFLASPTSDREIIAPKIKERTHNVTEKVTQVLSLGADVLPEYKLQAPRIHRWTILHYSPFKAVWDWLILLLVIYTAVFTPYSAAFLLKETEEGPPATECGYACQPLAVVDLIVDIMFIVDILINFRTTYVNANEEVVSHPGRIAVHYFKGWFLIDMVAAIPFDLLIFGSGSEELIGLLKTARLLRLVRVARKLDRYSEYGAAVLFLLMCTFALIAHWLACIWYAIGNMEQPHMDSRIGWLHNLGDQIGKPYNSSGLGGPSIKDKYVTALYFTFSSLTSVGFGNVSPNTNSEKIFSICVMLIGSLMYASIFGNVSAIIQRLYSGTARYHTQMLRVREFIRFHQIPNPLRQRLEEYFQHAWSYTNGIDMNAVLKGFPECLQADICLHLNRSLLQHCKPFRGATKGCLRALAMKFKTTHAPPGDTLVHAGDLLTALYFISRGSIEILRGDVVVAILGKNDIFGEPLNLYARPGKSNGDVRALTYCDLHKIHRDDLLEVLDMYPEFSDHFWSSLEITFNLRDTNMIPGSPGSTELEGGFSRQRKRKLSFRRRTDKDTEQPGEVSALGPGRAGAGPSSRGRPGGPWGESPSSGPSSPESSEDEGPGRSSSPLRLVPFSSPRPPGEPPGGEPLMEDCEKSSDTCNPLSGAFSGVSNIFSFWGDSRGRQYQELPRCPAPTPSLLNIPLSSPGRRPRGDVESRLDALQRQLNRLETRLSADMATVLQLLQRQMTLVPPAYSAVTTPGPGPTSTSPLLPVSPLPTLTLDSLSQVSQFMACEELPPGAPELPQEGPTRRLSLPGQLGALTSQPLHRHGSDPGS

In the case of CC1COc2c(N3CCN(C)CC3)c(F)cc3c(=O)c(C(=O)O)cn1c23 (single isomer, unassigned; (-)) [(−)-Ofloxacin], the “activity relative to the racemate” value [1] is listed as 8-128 times.

For CC(N)Cc1ccccc1 (centres unmarked) [AP, amphetamine], the “activity of S-isomer relative to R-isomer” value [2] is given as “approximately five”.

For CN[C@@H](C)Cc1ccccc1 [MAP, methamphetamine], the “activity of S-isomer relative to R-isomer” value [2] is listed as “approximately five”.

In the case of COc1cc(N)c(Cl)cc1C(=O)NC1CCNCC1OC (centres unmarked) [Norcisapride], the “effect on QT interval (in words)” value (human, in vivo) is given as “does not”.

In the case of COc1cc(N)c(Cl)cc1C(=O)NC1CCN(CCCOc2ccc(F)cc2)CC1OC (centres unmarked) [cisapride], the “effect on QT interval (in words)” value (human, in vivo) is given as “causes QT prolongation and arrhythmias”.

For COc1c(N2CCNC(C)C2)c(F)cc2c(=O)c(C(=O)O)cn(C3CC3)c12 (centres unmarked) [gatifloxacin], the “effect on QT interval (in words)” value (human, in vivo) is listed as “prolong the QT interval”.

In the case of Cc1c(F)c(N2CCNC(C)C2)cc2c1c(=O)c(C(=O)O)cn2C1CC1 (centres unmarked) [grepafloxacin], the “cardiac adverse events in clinical trials (in words)” value (clinical trials) is given as “Heart-rhythm abnormalities were observed in some patients” and the “effect on QT interval (in words)” value (human, in vivo) is given as “prolong the QT interval”.

For C[C@H]1COc2c(N3CCN(C)CC3)c(F)cc3c(=O)c(C(=O)O)cn1c23 [levofloxacin], the “effect on QT interval (in words)” value (human, in vivo) is given as “prolong the QT interval”.

In the case of COc1c(N2C[C@@H]3CCCN[C@@H]3C2)c(F)cc2c(=O)c(C(=O)O)cn(C3CC3)c12 [moxifloxacin], the “mean QT prolongation” value (human, in vivo) is listed as 6 ms, the “outliners (QT prolongation)” value (human, in vivo) is listed as 38 and the IKr blocker strength [3] is listed as “weak”.

In the case of C[C@@H]1CN(c2c(F)c(N)c3c(=O)c(C(=O)O)cn(C4CC4)c3c2F)C[C@H](C)N1 [sparfloxacin], the “effect on QT interval (in words)” value (human, in vivo) is given as “prolong the QT interval” and the “cardiac events per 10,000 prescriptions” value [4] is given as 145 per 10,000 prescriptions.
